Measured values published in ChEMBL document CHEMBL1201862, “PubChem BioAssay data set” (2004).
Blank lines part the entries; values can stand above or below the compound they belong to. Active and inactive are the calls of the source.

Assays:
[1] = biological target: Voltage-dependent T-type calcium channel subunit alpha-1H (Homo sapiens, UniProt O95180); assay type: functional;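 further: channel activity triggered by adding a high calcium stimulation buffer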
[2] = biological target: T1, Calpain-2 catalytic subunit (Sus scrofa, UniProt P43367); experiment: pig calpain II inhibitor potency, dose response, biochemical, fluorogenic peptide substrate (AID 1420); assay type: functional
T1 sequence (P43367 whole entry): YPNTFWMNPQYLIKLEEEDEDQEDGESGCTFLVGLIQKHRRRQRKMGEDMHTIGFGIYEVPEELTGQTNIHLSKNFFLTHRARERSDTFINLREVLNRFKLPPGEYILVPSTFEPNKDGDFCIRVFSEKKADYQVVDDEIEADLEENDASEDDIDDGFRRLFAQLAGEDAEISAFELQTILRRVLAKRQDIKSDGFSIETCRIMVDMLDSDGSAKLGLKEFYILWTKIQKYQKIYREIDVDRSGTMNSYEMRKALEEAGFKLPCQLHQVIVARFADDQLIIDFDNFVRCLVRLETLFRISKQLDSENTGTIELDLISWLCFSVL

[3] = Counterscreen for activators of the function of SWI/SNF related, matrix associated, actin dependent regulator of chromatin, subfamily a, member 2 (SMARCA2, BRM): Luminescence-based cell-based high throughput dose response assay to identify non-selective compounds using the VP16 reporter assay.; assay type: functional
[4] = biological target: SWI/SNF-related matrix-associated actin-dependent regulator of chromatin subfamily A member 2 (Homo sapiens, UniProt P51531); experiment: Luminescence-based cell-based high throughput dose response assay to identify activators of the function of SWI/SNF related, matrix associated, actin dependent regulator of chromatin, subfamily a, member 2 (SMARCA2, BRM).; assay type: functional
Mu-type opioid receptor = Mu-type opioid receptor (Homo sapiens, UniProt P35372); assay type: functional, cell-based;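 further: U2OS cells with beta-arrestin recruitment to OPRM1 by beta-gal complementation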
[5] = biological target: 5-hydroxytryptamine receptor 2A (Mus musculus, UniProt P35363); assay type: functional, cell-based;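 further: CHO-K1 cells with tagged receptor and beta-arrestin; agonist potency measured as compound-induced activation of the receptor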
[6] = biological target: T2, Corticotropin-releasing factor receptor 2/Corticotropin-releasing factor-binding protein (Homo sapiens, UniProt P24387+Q13324); experiment: activators of CRF receptor 2 with binding protein – uHTS hits, confirmation (AID 602473); assay type: functional; conditions: read-out: EC50_Mean
T2 sequence (Q13324 whole entry): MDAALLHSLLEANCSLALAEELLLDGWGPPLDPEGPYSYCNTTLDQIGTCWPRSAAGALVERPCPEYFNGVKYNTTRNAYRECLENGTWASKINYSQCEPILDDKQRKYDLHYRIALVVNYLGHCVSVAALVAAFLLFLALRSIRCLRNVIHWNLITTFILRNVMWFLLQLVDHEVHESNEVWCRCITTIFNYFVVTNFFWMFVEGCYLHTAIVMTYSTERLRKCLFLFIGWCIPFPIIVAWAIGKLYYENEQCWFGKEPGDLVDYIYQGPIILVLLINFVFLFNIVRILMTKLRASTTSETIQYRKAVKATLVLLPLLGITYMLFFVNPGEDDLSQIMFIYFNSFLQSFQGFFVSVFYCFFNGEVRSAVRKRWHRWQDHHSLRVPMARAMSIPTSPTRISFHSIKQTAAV
T2 sequence (P24387 whole entry): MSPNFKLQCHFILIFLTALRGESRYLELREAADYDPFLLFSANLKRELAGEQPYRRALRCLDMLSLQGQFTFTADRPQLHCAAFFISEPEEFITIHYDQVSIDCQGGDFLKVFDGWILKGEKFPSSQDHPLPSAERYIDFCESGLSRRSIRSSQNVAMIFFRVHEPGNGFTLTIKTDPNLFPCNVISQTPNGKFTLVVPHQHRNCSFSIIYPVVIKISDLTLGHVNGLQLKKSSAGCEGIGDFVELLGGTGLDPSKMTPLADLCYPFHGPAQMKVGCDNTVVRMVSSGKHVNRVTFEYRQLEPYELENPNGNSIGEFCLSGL

[7] = biological target: T2, Corticotropin-releasing factor receptor 2/Corticotropin-releasing factor-binding protein; experiment: Dose Response confirmation of uHTS hits for small molecule antagonists of the CRF-binding protein and CRF-R2 receptor complex.; assay type: functional; conditions: read-out: IC50_Mean
[8] = biological target: Glucose-6-phosphate 1-dehydrogenase (Homo sapiens, UniProt P11413); experiment: human G6PD enzyme inhibitors, dose response, selectivity assay for P. falciparum G6PD inhibitor project, biochemical, fluorescence (AID 504792); assay type: functional
Prothrombin = Prothrombin (Homo sapiens, UniProt P00734); experiment: Thrombin 1536 HTS Dose Response Confirmation. [Related pubchem assays: 1046 (Thrombin 1536 HTS; hits were confirmed in this assay)]; assay type: functional
[9] = biological target: T3, Heat shock factor protein 1 (Mus musculus, UniProt P38532); experiment: inhibition of MG132-induced HSE-luciferase signal, confirmation, cell-based, NIH3T3, luminescence, dose retest (AID 2382); assay type: functional;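 further: NIH3T3 fibroblasts with HSF1-driven luciferase reporter stressed by proteasome inhibitor MG132; luminescence from HSF1-driven luciferase expression after 8 hours of MG132 stress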
T3 sequence (P38532 whole entry): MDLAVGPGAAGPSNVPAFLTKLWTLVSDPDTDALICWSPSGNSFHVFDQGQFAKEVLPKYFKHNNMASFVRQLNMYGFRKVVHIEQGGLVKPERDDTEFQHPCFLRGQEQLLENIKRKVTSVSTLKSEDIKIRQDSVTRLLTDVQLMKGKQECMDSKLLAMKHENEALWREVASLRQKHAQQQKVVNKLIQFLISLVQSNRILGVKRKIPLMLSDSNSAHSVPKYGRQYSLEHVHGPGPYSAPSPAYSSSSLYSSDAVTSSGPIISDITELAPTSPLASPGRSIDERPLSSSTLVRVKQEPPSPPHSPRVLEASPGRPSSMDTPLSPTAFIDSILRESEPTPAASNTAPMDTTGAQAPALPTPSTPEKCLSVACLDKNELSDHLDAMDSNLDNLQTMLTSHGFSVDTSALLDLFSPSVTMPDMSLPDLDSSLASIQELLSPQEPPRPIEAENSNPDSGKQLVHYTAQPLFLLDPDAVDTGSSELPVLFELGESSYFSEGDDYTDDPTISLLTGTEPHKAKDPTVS

[10] = growth suppression of PTEN-null colon cells, dose response, cell-based, HCT116 PTEN knockout (AID 1047); assay type: functional;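 further: HCT116 colon tumor cells with PTEN knocked out; cells exposed to compound for 60 hours before readout; potency for loss of cell viability measured by luminescence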
[11] = growth suppression of beta-catenin-knockout colon cells, dose response, cell-based, HCT116, human colon tumor (AID 1045); assay type: functional;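 further: HCT116 colon tumor cells with beta catenin knocked out; cells exposed to compound for 60 hours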
cells [12] = assay type: functional, cell-based
cells [13] = assay type: functional, cell-based; remark: listed apart in the source

Chain of Mu-type opioid receptor (P35372 whole entry): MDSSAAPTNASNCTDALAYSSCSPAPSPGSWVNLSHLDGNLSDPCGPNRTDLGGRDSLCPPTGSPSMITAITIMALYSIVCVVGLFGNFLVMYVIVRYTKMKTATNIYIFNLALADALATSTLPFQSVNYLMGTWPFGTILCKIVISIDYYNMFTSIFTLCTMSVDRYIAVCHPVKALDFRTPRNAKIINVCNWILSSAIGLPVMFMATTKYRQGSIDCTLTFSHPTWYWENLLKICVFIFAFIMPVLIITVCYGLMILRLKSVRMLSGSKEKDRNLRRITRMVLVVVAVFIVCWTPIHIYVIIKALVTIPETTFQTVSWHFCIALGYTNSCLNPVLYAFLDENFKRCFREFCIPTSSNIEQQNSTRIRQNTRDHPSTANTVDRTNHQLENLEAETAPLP
Chain of 5-hydroxytryptamine receptor 2A (P35363 whole entry): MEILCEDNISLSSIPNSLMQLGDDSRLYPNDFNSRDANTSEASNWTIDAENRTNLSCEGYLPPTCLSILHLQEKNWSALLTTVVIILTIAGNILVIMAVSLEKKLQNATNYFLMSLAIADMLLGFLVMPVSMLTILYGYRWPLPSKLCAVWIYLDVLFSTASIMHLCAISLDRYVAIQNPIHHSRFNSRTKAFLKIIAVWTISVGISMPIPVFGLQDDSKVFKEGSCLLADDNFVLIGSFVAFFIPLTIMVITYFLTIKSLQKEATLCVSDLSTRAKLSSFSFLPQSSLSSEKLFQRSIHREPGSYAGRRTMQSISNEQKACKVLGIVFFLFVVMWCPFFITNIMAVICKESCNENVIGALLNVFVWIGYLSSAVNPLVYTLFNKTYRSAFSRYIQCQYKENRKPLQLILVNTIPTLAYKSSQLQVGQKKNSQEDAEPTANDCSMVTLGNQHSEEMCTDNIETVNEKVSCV
Chain of Glucose-6-phosphate 1-dehydrogenase (P11413 whole entry): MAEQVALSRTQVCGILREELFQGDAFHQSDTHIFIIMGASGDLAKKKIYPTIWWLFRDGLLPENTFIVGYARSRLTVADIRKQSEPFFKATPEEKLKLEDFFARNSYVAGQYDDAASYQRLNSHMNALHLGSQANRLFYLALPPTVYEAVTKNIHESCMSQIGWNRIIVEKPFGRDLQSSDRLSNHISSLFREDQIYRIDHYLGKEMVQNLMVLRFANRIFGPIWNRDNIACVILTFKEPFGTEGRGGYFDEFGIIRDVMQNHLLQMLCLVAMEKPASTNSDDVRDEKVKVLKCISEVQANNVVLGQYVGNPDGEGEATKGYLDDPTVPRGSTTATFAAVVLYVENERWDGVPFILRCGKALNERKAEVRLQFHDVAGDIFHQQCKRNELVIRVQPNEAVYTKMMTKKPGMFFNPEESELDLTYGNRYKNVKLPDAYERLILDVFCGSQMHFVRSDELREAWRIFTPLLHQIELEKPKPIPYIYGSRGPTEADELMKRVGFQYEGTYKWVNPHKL
Chain of Voltage-dependent T-type calcium channel subunit alpha-1H (O95180 whole entry): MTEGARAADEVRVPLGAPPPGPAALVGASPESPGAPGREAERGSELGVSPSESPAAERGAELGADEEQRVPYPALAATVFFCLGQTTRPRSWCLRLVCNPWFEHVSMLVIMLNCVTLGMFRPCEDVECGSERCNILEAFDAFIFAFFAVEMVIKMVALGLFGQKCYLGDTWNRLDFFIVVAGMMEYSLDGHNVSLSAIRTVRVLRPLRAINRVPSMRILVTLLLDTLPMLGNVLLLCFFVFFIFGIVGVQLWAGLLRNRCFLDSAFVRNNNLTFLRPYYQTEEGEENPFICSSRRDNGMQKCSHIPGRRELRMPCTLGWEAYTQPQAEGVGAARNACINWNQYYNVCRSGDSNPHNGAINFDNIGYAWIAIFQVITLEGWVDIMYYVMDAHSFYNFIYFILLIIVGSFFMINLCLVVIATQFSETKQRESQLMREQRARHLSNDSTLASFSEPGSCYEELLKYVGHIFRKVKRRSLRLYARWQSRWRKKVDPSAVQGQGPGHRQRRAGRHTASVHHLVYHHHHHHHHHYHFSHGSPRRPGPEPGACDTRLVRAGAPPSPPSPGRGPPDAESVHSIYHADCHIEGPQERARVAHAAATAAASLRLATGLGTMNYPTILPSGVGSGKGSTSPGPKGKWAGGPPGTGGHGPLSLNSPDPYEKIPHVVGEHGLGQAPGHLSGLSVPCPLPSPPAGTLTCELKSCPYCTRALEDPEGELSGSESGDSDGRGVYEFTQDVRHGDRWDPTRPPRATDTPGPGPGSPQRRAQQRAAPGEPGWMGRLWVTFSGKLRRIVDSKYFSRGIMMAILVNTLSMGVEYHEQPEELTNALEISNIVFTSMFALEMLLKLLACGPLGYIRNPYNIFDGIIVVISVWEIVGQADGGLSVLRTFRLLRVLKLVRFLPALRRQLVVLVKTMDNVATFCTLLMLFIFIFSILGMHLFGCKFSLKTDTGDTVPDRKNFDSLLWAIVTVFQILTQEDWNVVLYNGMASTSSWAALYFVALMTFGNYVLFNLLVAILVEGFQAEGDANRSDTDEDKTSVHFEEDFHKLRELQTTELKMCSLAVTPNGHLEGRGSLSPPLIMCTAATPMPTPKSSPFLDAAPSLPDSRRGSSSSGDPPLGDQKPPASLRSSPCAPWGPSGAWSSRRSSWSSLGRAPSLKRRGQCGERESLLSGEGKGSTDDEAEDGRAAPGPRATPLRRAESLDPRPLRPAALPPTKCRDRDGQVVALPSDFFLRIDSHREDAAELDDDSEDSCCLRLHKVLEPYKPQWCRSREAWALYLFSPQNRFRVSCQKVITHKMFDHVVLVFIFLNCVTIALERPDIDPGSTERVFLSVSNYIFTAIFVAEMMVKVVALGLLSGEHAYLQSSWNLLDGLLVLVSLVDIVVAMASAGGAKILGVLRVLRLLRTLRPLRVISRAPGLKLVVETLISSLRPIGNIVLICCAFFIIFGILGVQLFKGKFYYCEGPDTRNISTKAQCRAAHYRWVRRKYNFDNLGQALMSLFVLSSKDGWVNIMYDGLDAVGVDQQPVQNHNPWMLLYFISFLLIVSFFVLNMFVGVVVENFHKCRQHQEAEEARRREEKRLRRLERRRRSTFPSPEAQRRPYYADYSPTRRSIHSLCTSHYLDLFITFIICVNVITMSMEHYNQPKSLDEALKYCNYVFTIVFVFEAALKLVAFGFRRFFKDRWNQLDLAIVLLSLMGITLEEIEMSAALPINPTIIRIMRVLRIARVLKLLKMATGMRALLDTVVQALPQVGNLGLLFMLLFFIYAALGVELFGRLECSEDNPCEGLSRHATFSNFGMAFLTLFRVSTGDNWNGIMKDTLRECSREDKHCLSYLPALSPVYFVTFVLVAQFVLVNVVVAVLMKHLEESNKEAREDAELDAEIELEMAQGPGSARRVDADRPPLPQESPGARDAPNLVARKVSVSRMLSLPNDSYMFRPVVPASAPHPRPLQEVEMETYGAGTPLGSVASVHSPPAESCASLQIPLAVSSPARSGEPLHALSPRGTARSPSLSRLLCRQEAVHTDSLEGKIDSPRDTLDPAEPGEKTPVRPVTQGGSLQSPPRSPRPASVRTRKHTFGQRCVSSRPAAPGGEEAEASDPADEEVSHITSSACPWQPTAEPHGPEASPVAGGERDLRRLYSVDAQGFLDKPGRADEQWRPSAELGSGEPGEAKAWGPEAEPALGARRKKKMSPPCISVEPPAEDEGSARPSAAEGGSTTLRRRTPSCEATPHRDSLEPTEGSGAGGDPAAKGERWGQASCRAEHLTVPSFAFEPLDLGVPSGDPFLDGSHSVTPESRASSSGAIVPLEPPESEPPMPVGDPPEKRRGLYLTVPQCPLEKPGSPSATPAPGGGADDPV

SMILES: Nc1nc(CN2CCN(Cc3ccccc3)CC2)nc(Nc2ccc3c(c2)OCCO3)n1
EC50 [3]: > 91.2 µM (inactive) | EC50 [4]: > 91.2 µM (inactive)

SMILES: CC(=O)c1cccc(OCC(O)CN2CC=C(c3ccccc3)CC2)c1 (stereo unspecified)
EC50 (Mu-type opioid receptor): 92.5 µM (inactive) | EC50 [5]: 0.0752 µM (active)

SMILES: Cc1ccc(CN(C(=O)c2ccccc2[N+](=O)[O-])C2CCS(=O)(=O)C2)o1 (stereo unspecified)
EC50 [6]: > 53 µM (inactive) | IC50 [7]: > 47.1 µM (inactive)

SMILES: C=CCOc1ccc(/C=N/N2C(=O)C(CC(=O)Nc3ccc(F)cc3F)S/C2=N\C)cc1 (stereo unspecified)
EC50 [10]: 17.6 µM (active) | IC50 [2]: > 50 µM (not active) | EC50 [11]: 79.4 µM (active)

SMILES: COc1cccc(/C=N\NC(=O)Cn2nnc3ccccc32)c1O
EC50 (cells [12]): > 350 µM (not active) | EC50 (cells [13]): 172 µM (active)

SMILES: CCOc1cccc(-c2c(C(=O)N/N=C/c3ccc(Br)cc3)nnn2-c2nonc2N)c1
EC50 (cells [12]): 160 µM (active) | EC50 (cells [13]): > 350 µM (not active)

SMILES: Cc1ccc(S(=O)(=O)Oc2cccc(/C=N/Nc3ccc(C(=O)O)cc3)c2)cc1
IC50 [8]: 53.5 µM (inactive)

Now from value to compound:

EC50 [1]: 1.95 µM (active)
SMILES: Cc1ccc(-c2noc(CSc3nnnn3C3CCCCC3)n2)cc1

IC50 [2]: 2.3 µM (active)
SMILES: COc1ccc(CNc2nc3c(c(=O)n(Cc4ccc(Br)cc4)c(=O)n3C)n2C)cc1

IC50 [8]: > 80 µM (inactive)
SMILES: Cc1ccc(S(=O)(=O)N(C)C)cc1NC(=O)CSc1nc2cc(Cl)c[nH]c-2n1

IC50 (Prothrombin): 1.37 µM (active) | EC50 [9]: > 195 µM (not active)
SMILES: O=C(Oc1oc(-c2ccco2)nc1/C=N/c1ccccc1)c1ccoc1

EC50 (Mu-type opioid receptor): 92.5 µM (inactive) | EC50 [5]: 25.4 µM (inactive)
SMILES: O=C(CCN1CCN(c2ccccc2)CC1)N/N=C/c1ccccc1OC(F)F
